# Data reported in article PMC4545774, “Identification of inhibitors that target dual-specificity phosphatase 5 provide new insights into the binding requirements for the two phosphate pockets” (BMC Biochemistry, 2015).
# Values joined by “and” are separate entries in the source; they are usually repeats but may differ in a detail not shown here. Identical values can stand only once. “Also recorded” adds a separate entry of the source. Like-named read-outs stand apart in the source and are kept apart here.
# Tests used:
# panel of 21 phosphatases = assay: Screen against a panel of 21 phosphatases; format: biochemical; details: at up to 30 μM
# [1] = Nephelometry (aggregation in solution); format: physicochemical; details: 10-100 μM, pH 7.5 buffer; for aggregation: nephelometry
# Protocol: Nephelometry is a technique for measuring the relative aggregation of particles in solution, based on the light-scattering properties of molecular aggregates. We performed nephelometry to explore the ability of the chemicals studied herein to form aggregates, which can lead to artifactual inhibition effects. Compounds were tested for aggregation in 96-well plates using a buffer containing 100 mM Tris base, 100 mM sodium chloride, and 5 mM magnesium chloride at pH 7.5. Each compound analyzed in these experiments contained concentrations of compound ranging from 10-100 μM, recorded in quadruplet. Each plate was analyzed at two separate gain values of 52 and 72. Data were collected using a BMG NEPHELOstar Plus, equipped with a 635 nm laser.
# DUSP5 PD(WT) [2] = target: T1, DUSP5 PD(WT) (Homo sapiens, UniProt Q16690); assay: p-nitrophenol phosphate (pNPP) phosphatase activity / IC50 assay; format: biochemical; details: for effect of detergent on inhibition: presence vs absence of 0.5 % Triton X-100
# T1 construct: hexa-histidine (N); made in house; host or cells: E. coli BL21(DE3)
# T1 sequence (Q16690 178-319 limits assumed): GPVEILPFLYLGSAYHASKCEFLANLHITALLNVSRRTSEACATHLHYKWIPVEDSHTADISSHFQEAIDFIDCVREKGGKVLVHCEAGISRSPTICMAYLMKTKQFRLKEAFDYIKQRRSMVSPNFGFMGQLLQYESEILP
# Description: To measure enzymatic activity of the DUSP5 PD and the inhibitory capacity of selected molecules, an in vitro phosphatase assay was developed based on previous studies. In this assay, DUSP5 PD will dephosphorylate the substrate p-nitrophenol phosphate (pNPP, Sigma Aldrich), yielding p-nitrophenolate, which absorbs at 405 nm with an extinction coefficient of 18,000 M^−1 cm^−1.
# Thus, an increase in absorbance at 405 nm corresponds to the turnover of pNPP to p-nitrophenolate. The assay was initially optimized in 1 mL quartz cuvettes, then was subsequently optimized for and validated in a 96-well plate format. All IC50 values were obtained using the 96-well plate assay format (see below). The assay buffer contained 100 mM Tris, 100 mM sodium chloride, 5 mM magnesium chloride, and 1 mM DTT at pH 7.5. The pNPP substrate was prepared as a 50 mM stock by dissolving the solid substrate in assay buffer. The DUSP5 PD and pNPP were assayed initially in a cuvette (1 mL total volume) and initial velocities were fitted to the Michaelis-Menten equation:1 v=VmaxS/Km+S where v is the initial velocity, Vmax is the maximum velocity, Km is the Michaelis constant, and [S] is the concentration of pNPP. Data were fitted using a nonlinear least squares fit to eq. 1, with GraphPad Prism 6 software.
# For the 96-well plate validation assay, sodium orthovanadate (Sigma Aldrich) was utilized as a positive control for inhibition at a final concentration of 10 μM, to completely block DUSP5(WT) enzymatic activity. All plate assays were performed in standard 96-well clear bottom plates (Thermo Scientific Nunc) with a total assay volume of 200 μL, using a SpectraMax M5 Microplate Reader (Molecular Devices). The plate validation assay was performed with replicate columns of positive control wells, negative control wells and blank wells. Blank columns contained only buffer and pNPP. Negative control (uninhibited) contained buffer, pNPP, and DUSP5 PD(WT); and, positive control contained the same components, but also contained 10 μM sodium orthovanadate. The plate was then shaken and allowed to equilibrate in the spectrophotometer at 25 °C for 30 min. After incubation, 4 μL of a 50 μM enzyme stock was dispensed into appropriate wells utilizing a single-channel pipette. This produced a final enzyme concentration of 1 μM. Before a read was taken, the plate was shaken for five seconds. […] The endpoint reading was subsequently taken at 90 min after initiation of reaction.
# IC50 values were obtained using the assay described above, in 96 well plates. The maximum inhibitor concentration screened in any plate was […] and the minimum screened concentration was 1 μM. The IC50 plate was designed so that the first column of wells served as blanks, with wells containing only buffer and substrate. The second column of wells functioned as the plate negative control, with each well containing buffer, substrate and enzyme. The remaining wells in the plate contained buffer, substrate, enzyme, and varying amounts of inhibitor, with inhibitor concentration increasing from left to right across the plate. Data points were collected at a minimum in triplicate, and inhibitor concentrations were chosen to provide data equally spread on a logarithmic scale. The composition of buffer and the concentrations of substrate and enzyme utilized were identical to those in the plate validation assay. After initiation and shaking, a ten-minute kinetic read was taken.
# For each plate assayed, the slope values for all negative control wells were averaged and the measured value considered representative of full enzymatic activity.
# full length DUSP5 = target: T2, full length DUSP5 (Homo sapiens, UniProt Q16690); assay: ERK dephosphorylation assay (full-length DUSP5, pERK2 substrate, Western blot); format: biochemical; details: full length DUSP5, pERK2 as substrate
# T2 construct: in the more biologically relevant assay with full length DUSP5 and using pERK2 as substrate; made in house
# T2 sequence (Q16690 1-384): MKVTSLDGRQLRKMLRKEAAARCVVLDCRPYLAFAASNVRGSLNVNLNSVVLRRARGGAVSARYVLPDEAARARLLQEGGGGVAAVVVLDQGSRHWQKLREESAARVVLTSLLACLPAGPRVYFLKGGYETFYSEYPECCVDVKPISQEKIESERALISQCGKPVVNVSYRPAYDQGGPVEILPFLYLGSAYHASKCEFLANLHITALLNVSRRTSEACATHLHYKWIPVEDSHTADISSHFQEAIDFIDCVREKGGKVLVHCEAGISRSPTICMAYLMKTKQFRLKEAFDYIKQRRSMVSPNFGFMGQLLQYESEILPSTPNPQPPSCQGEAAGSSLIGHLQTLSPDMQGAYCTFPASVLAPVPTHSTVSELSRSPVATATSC
# Protocol: For this assay, 10 ng of GST-tagged recombinant phosphorylated ERK2 (R&D Systems, 1230-KS) was incubated with and without the indicated DUSP5 proteins (0.5 nM final concentration) for 15 min at room temperature, with or without the indicated drugs. The reactions were halted with 2x Laemmli sample buffer and subjected to SDS-PAGE. The proteins were transferred to polyvinylidene difluoride (PVDF) and immunoblotted using antibodies to pERK (Cell Signaling Tech., #9106) and total ERK, which includes both phosphorylated and unphosphorylated ERK1 and ERK2 (Cell Signaling Tech., #9102). Bound antibodies were visualized using horseradish peroxidase-linked anti-mouse IgG (Cell Signaling Tech, #7076S) and anti-rabbit IgG (Cell Signaling Tech, #7074S), respectively, and ECL reagents (Pierce, #34708) according to the manufacturer’s protocol. For calculating IC50 values, gel bands were imaged by chemiluminescence with either film or digital image capture by a FluorChem HD2 imager (Alpha Innotech). Density of each band was quantified with ImageJ software by using the gel analysis tool. Relative values of phosphorylated ERK present for each drug concentration treatment compared to pERK only controls were calculated. These relative values were then used to obtain IC50 values with GraphPad Prism 6 software. […]
# DUSP5 PD(C263S) = tested on: T3, DUSP5 PD(C263S); assay: NMR binding assay (2D 1H-15N HSQC); set-up: species or system human; details: 250 μM RR505 or 500 μM CSD^3_2320, pH 6.8
# T3 construct: a C-terminal phosphatase domain (PD); hexa-histidine (N); made in house; host or cells: E. coli BL21(DE3)
# Protocol: NMR samples of DUSP5 PD(C263S) were prepared for 2D ^1H-^15N HSQC (heteronuclear single quantum coherence) spectral titration studies. The ^15 N-labeled DUSP5 PD(C263S) protein was concentrated using an Amicon Ultra-4 centrifugal device (Millipore) to 600 μM. NMR samples were prepared with the following conditions for RR505: 250 μM RR505, 250 μM DUSP5 PD(C263S), 10 % D2O, 50 mM potassium phosphate, 100 mM KCl, and 2 mM DTT at pH 6.8 and for CSD^3-2320: 0 or 500 μM CSD^3-2320, 500 μM DUSP5 PD(C263S), 10 % D2O, 50 mM potassium phosphate, 100 mM KCl, and 2 mM DTT at pH 6.8. NMR experiments were performed on a 500 MHz Varian NMR System using a triple resonance probe with z-axis gradients at 25 °C.
# DUSP5 PD(WT) [3] = target: T1, DUSP5 PD(WT); assay: p-nitrophenol phosphate (pNPP) phosphatase activity / IC50 assay; format: biochemical; details: 1 mL cuvettes, pNPP substrate
# [4] = pNPP as substrate, Michaelis-Menten fit, 1 mL cuvette
smiles,measurement,setting,value
O=S(=O)(O)c1cc(O)c2c(S(=O)(=O)O)cccc2c1 [CSD^3_2320],inhibition of panel phosphatases,panel of 21 phosphatases,not inhibit any of them significantly
same,aggregation,[1],does not aggregate; also recorded: no propensity to aggregate; also recorded: no tendency to aggregate
same,aggregation,[1]; listed as CSD3_2320,no tendency
same,IC50,"DUSP5 PD(WT) [2]; phosphatase domain alone, pNPP as substrate, read-out: IC50",32700 µM and 33000 µM
same,IC50,full length DUSP5; read-out: IC50 (mean),33 µM
same,IC50,full length DUSP5; read-out: IC50 (range),8 to 96 µM
same,binding by HSQC cross-peak shifts,DUSP5 PD(C263S),direct binding
same,binding by HSQC cross-peak shifts,DUSP5 PD(C263S); listed as CSD3_2320,binding
"O=S(=O)(O)c1ccc2c(S(=O)(=O)O)cc(S(=O)(=O)O)cc2c1 [NTS, Naphthalene trisulfonate]",aggregation,[1],do not appear to form aggregates
same,effect of detergent on inhibition,DUSP5 PD(WT) [2],no detergent-effect
"O=S(=O)([O-])c1cc(S(=O)(=O)[O-])c2[nH]c3c(S(=O)(=O)[O-])cc(S(=O)(=O)[O-])cc3c2c1.[Na+].[Na+].[Na+].[Na+] [RR506, Carbazole-1,3,6,8-tetrasulfonic acid, tetrasodium salt]",aggregation,[1],do not appear to form aggregates
same,IC50,"DUSP5 PD(WT) [2]; pNPP substrate, 96-well plate, Triton X-100 at 0.1 %, read-out: IC50 from enzyme assay",16000 ± 2000 µM
Cc1ccc(C(=O)Nc2ccc(S(=O)(=O)O)c3cc(S(=O)(=O)O)cc(S(=O)(=O)O)c23)cc1NC(=O)c1cccc(NC(=O)Nc2cccc(C(=O)Nc3cc(C(=O)Nc4ccc(S(=O)(=O)O)c5cc(S(=O)(=O)O)cc(S(=O)(=O)O)c45)ccc3C)c2)c1 [Suramin],concentration at which aggregates start forming,[1],around 25 μM
same,aggregation,[1],forms aggregates in vitro
same,inhibition at 1 µM,"DUSP5 PD(WT) [2]; 1 μM suramin, 5 mM pNPP, read-out: plateau level of inhibition with increasing Triton X-100",30%
same,Ki,"DUSP5 PD(WT) [2]; competitive versus pNPP, absence of Triton X-100",24.6 µM and 25 µM
same,effect of detergent on inhibition,DUSP5 PD(WT) [2],loss and loss of some inhibitory capability
same,effect of detergent on inhibition,DUSP5 PD(WT) [2]; listed as suramin,detergent decreases suramin inhibition
same,mode of inhibition,DUSP5 PD(WT) [2]; varied pNPP and inhibitor,competitive inhibitor; also recorded: competitive inhibition
"O=[N+]([O-])c1ccc(OP(=O)(O)O)cc1 [pNPP, p-nitrophenol phosphate]",Km,DUSP5 PD(WT) [2]; [4],7.6 ± 0.4 mM
same,Vmax,DUSP5 PD(WT) [2]; [4],1.35 ± 0.02 × 10^−3 μmol/min
[Na+].[Na+].[Na+].[O]=[V]([O-])([O-])[O-] [sodium orthovanadate],IC50,DUSP5 PD(WT) [3],0.088 ± 0.008 µM
